Source: publication PMC3328449, “Inhibition of Diacylglycerol–Sensitive TRPC Channels by Synthetic and Natural Steroids” (PLoS ONE, 2012)

What was measured:
hTRPC3 = target: T1, hTRPC3 (Homo sapiens, UniProt Q13507); experiment: Whole-cell patch clamp, AlF4- evoked TRPC3 currents; assay type: cell-based; conditions: 10 µM, AlF4- infusion
T1 construct: expressed in transfected cells
T1 sequence (Q13507 1-848 isoform Q13507-3): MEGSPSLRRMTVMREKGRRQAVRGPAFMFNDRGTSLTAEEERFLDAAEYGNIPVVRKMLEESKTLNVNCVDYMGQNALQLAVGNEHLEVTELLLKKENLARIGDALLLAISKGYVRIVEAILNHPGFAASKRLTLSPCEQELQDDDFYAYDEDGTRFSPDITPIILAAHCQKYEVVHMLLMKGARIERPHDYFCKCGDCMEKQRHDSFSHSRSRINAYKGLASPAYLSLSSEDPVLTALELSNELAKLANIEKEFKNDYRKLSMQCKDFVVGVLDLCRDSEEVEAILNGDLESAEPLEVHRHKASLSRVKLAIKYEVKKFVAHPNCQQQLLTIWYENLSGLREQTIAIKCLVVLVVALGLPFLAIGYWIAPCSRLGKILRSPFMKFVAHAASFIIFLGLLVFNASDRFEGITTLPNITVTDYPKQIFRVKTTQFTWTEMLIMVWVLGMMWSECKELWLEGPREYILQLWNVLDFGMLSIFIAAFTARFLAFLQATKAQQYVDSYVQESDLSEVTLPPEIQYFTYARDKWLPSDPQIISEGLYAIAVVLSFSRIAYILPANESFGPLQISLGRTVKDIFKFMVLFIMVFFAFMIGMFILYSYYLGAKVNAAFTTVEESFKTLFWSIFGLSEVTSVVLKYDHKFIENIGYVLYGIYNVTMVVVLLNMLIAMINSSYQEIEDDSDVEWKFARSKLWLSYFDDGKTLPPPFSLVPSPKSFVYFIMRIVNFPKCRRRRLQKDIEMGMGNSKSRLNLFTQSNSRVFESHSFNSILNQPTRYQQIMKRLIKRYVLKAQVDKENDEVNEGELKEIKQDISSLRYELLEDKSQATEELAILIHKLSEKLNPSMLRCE
Text: hTRPC3 (GenBank accession number NM_003305) was stably expressed in chinese hamster ovary (CHO) cells using a proprietary high expression vector (Steinbeis –Transferzentrum für Angewandte Biologische Chemie, Mannheim, Germany).
The whole-cell patch clamp technique was employed to measure ion currents from single cells. Heat-polished patch pipettes with resistances of 2–4 MΩ were pulled from borosilicate glass capillaries (Hilgenberg, Malsfeld, Germany) using a DMZ-Universal puller (Zeitz-Instruments, Munich, Germany) and filled with standard intracellular solution containing: 120 mM CsOH, 120 mM gluconic acid, 2 mM MgCl2, 3 mM CaCl2, 5 mM Cs4-BAPTA, 10 mM HEPES (pH 7.4 adjusted with gluconic acid). For agonist-independent stimulation of TRPC currents the intracellular solution was supplemented with 30 µM AlCl3 and 10 mM NaF and cells were infused with AlF4 ^− through the patch pipette. […]
Cells grown on poly-L-lysine-coated coverslips were continuously superfused with extracellular solution and substances were applied using an ALA BPS-8 perfusion system (ALA Scientific Instruments, Westbury, USA). […] Cells were held at −70 mV, and current-voltage (I–V) relationships were routinely measured every 2 or 3 s by applying voltage ramps (180 ms) from −100 mV to +80 mV. […]

A7r5 cells = experiment: Fura-2 measurement of AVP-induced Ca2+ release in A7r5 cells; assay type: cell-based; conditions: 10 µM, 5 min pre-incubation, calcium-free solution, 100 nM AVP
Description: A7r5 cells (ATCC, Rockville, USA) were maintained in DMEM (with glutaMAX I, 4.5 g/l glucose and […] sodium pyruvate), supplemented with 10% (v/v) fetal bovine serum (PAA, Pasching, Austria). Cells grown on poly-L-lysine-coated 24-mm glass coverslips were loaded in cell culture medium supplemented with 2 µM fura-2 AM (30 min, 37°C) and subsequently allowed to de-esterify in standard extracellular solution (15 min, 37°C). Changes in [Ca^2+]i were measured using a monochromator-based imaging system (T.I.L.L. Photonics, Gräfelfing, Germany) mounted on an inverted Axiovert 200 microscope (Zeiss, Göttingen, Germany). Fluorescence was excited alternating at 340 nm and 380 nm, long-pass filtered at 440 nm and captured at 2 s intervals. The 340/380 nm excitation ratio of selected cell areas was calculated with T.I.L.L. vision 4.0 software (T.I.L.L. Photonics) after correction for background fluorescence.

rat aortic rings = experiment: Isometric force measurement, relaxation of phenylephrine pre-contracted rat aortic rings; conditions: L-NAME treated, n = 6, read-out: EC50, vasorelaxation of pre-contracted aortic rings
Description: Adult male Wistar-Unilever rats (8–11 weeks old; Harlan Winkelmann, Borchen, Germany) were sacrificed by decapitation. Thoracic aortas were excised quickly, transferred to cold (4°C), carbogen (95% O2 and 5% CO2) bubbled physiological salt solution (119 mM NaCl, 4.7 mM KCl, 1.2 KH2PO4, 1.2 mM MgSO4, 1.6 mM CaCl2, 25 mM NaHCO3, 11 mM glucose) and rinsed. After removal of connective tissue and perivascular fat aortas were dissected in 5 mm rings, connected to force transducers and equilibrated in carbogen bubbled physiological salt solution at 37°C for 15 min. Aortic rings were set at 1000 mg passive tension and contractile forces were then measured isometrically using standard bath procedures as described earlier. […]
For statistical analysis, analysis of variance was performed with Origin 6.0 software (Microcal Software Inc., Northampton, USA). […] IC50 were calculated with SigmaPlot (Systat software, San Jose, USA) using the sigmoidal Hill-model: f = 100 (C^n/(IC50 ^n+C^n)); where f is the inhibition, C is the applied drug concentration and n is the Hill coefficient. The half maximal effective concentration (EC50) of norgestimate-induced vasorelaxation was calculated analogously with R = y0+y1C^n/(EC50 ^n+C^n); where R is relaxation, yo and y1 are constants, C is the applied drug concentration and n is the Hill coefficient. Averaged data is expressed as means ± SEM.

Inhibition of TRPC3 currents (hTRPC3): almost completely inhibited
EC50 (rat aortic rings): 8.19 µM
Compound: C#C[C@]1(OC(C)=O)CC[C@H]2[C@@H]3CCC4=CC(=NO)CC[C@@H]4[C@H]3CC[C@@]21CC (mixture of isomers) [norgestimate]
Sensitivity of AVP-induced Ca2+ release (A7r5 cells): not sensitive
